Reference: US20230293517A1, “ANTAGONIST COMPOUNDS” (AdoRx Therapeutics Limited, priority 2020, published 2023)
“And” between values parts separate entries of the source, which are not always exact repeats. Identical values can stand only once. Counter-ions that a name gives are not always drawn. Like-named read-outs stand apart in the source and are kept apart here.

Columns and labels:
[1] = biological target: human Adenosine A2b receptor (Homo sapiens (Human), UniProt P29275); test: Adenosine receptor TR-FRET binding assay (A2b)
Method: (§1) Biological Example 1—Adenosine Receptor Time-Resolved Fluorescence Resonance Energy Transfer (TRFRET) Binding Assay
(§2) All FRET binding experiments were conducted at room temperature in white 384-well plates, in assay binding buffer containing 1×LabMed (Cisbio, France), 100 μg/mL saponin, 1% DMSO and 0.02% pluronic acid. Binding of the fluorescently labelled Adenosine receptor antagonist XAC (CA200645, FRET acceptor) to terbium-labelled A1, A2a, A2b and A3 adenosine receptors (FRET donors) was detected by time-resolved FRET due to the close proximity of the donor and acceptor in a binding event. To investigate the ability of unlabelled test compounds to bind to Adenosine A1, A2a, A2b and A3 receptors, dose response curves were constructed that determined the ability of a range of concentrations to inhibit the binding of 30 nM CA200645 to the A2b receptor and 100 nM CA200645 to the A1, A2a, and A3 receptor.
(§3) Serial dilution (1:3 dilutions) of test compounds in neat DMSO and transfer of a 400 nL sample of test compound into the assay plate was carried out using the Mosquito (TTP Labtech, UK). The compound samples were incubated for 2 hours at room temperature with a fixed concentration of CA200645 defined for each receptor (see above) and CHO cell membranes containing the human Adenosine A1 (0.5 μg/well), A2a (0.3 μg/well), A2b (1 μg/well) or A3 (1 μg/well) receptor in 40 μL of assay buffer. Total and non-specific binding of CA200645 was determined in the absence and presence of 10 μM XAC, respectively. Following 2 hours incubation, the level of CA200645 binding was detected on a Pherastar FSX (BMG Labtech, Germany) using standard TR-FRET settings. The terbium donor was excited with three laser flashes at a wavelength of 337 nm, and donor and acceptor emission was detected at 620 nm and 665 nm wavelengths, respectively. FRET ratios were obtained by multiplying the acceptor/donor ratio value by 10,000. Specific binding was determined by subtracting the non-specific binding FRET ratio from the total binding FRET ratio. Compound IC50 curves were analysed using GraphPad Prism 7.0 (GraphPad, USA) and Ki affinity values were determined from the obtained IC50 values using the method of Cheng and Prusoff.

[2] = biological target: human Adenosine A2a receptor (Homo sapiens (Human), UniProt P29274); test: Adenosine receptor TR-FRET binding assay (A2a); conditions: inhibition of binding of 100 nM CA200645, CHO cell membranes
Method: as §1, §2, §3

[3] = biological target: human Adenosine A1 receptor (Homo sapiens (Human), UniProt P30542); test: Adenosine receptor TR-FRET binding assay (A1); conditions: inhibition of binding of 100 nM CA200645, CHO cell membranes
Method: as §1, §2, §3

[4] = TR-FRET, inhibition of binding of 30 nM CA200645, CHO cell membranes

human Adenosine A1 receptor, sequence (P30542 whole entry): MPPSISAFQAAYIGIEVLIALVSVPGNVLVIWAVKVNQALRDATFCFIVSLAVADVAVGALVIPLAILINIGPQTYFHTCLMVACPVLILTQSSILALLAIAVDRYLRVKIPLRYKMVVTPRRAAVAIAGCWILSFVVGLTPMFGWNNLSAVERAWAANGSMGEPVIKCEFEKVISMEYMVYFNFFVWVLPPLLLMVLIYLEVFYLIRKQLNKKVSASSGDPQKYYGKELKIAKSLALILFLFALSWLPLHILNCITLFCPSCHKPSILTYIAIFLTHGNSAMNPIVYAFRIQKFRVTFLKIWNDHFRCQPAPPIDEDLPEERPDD
human Adenosine A2a receptor, sequence (P29274 whole entry): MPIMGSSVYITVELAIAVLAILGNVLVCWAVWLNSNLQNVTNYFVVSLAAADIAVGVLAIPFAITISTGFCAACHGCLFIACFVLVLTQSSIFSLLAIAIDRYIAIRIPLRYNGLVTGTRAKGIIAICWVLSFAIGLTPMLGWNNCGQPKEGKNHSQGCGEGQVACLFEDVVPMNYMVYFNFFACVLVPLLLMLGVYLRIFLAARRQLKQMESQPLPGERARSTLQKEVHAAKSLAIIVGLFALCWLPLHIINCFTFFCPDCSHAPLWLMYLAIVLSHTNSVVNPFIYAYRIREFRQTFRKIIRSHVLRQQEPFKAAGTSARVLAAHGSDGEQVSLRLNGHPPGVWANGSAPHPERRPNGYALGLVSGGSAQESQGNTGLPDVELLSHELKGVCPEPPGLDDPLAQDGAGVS
human Adenosine A2b receptor, sequence (P29275 whole entry): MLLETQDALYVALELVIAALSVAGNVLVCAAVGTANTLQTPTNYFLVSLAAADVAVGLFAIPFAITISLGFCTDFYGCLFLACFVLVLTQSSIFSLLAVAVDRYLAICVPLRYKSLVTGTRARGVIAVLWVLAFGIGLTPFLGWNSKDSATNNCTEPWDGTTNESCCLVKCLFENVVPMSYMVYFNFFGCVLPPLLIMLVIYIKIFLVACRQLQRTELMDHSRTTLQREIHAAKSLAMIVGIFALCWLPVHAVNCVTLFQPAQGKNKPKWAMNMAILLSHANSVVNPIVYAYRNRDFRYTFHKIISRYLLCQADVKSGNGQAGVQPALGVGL

Compound	Ki [1, 4] [nM]	Ki [2] [nM]	Ki [3] [nM]	Ki [1] [nM]	Ki ([1]; TR-FRET, inhibition of binding of 30 nM CA200645, CHO cell membranes, formate salt)	Ki ([3]; formate salt)
Cc1cc(-c2sc(NC(=O)N3CCN(CC(C)(C)O)CC3)nc2-c2cccc(C#N)c2)cc(C)n1 [Example 4.34, N-[4-(3-Cyanophenyl)-5-(2,6-dimethyl-4-pyridyl)thiazol-2-yl]-4-(2-hydroxy-2-methyl-propyl)piperazine-1-carboxamide]	13	12.2	268	–	–	–
Cc1cc(-c2sc(NC(=O)N3CCNCC3(C)C)nc2-c2cccc(C#N)c2)cc(C)n1 [Example 7.9, N-[4-(3-Cyanophenyl)-5-(2,6-dimethyl-4-pyridyl)thiazol-2-yl]-2,2-dimethyl-piperazine-1-carboxamide]	44.2	10.3	61	–	–	–
Cc1cc(-c2sc(NC(=O)N3CCC(C)(C#N)CC3)nc2-c2cccc(C#N)c2)cc(C2COC2)n1 [Example 6.111, 4-Cyano-N-[4-(3-cyanophenyl)-5-[2-methyl-6-(oxetan-3-yl)-4-pyridyl]thiazol-2-yl]-4-methyl-piperidine-1-carboxamide]	6.4	0.2	18	–	–	–
Cc1cc(-c2sc(NC(=O)N3C4CNCC3C4)nc2-c2cccc(C#N)c2)cc(C)n1 [Example 7.5, N-[4-(3-Cyanophenyl)-5-(2,6-dimethyl-4-pyridyl)thiazol-2-yl]-3,6-diazabicyclo[3.1.1]heptane-6-carboxamide]	11.9	1.26	9	–	–	–
Cc1cc(-c2sc(NC(=O)N3CCN(C(C)(C)CO)CC3)nc2-c2cccc(C#N)c2)cc(C)n1 [Example 4.37, N-[4-(3-Cyanophenyl)-5-(2,6-dimethyl-4-pyridyl)thiazol-2-yl]-4-(2-hydroxy-1,1-dimethyl-ethyl)piperazine-1-carboxamide]	27.1	4.29	545	–	–	–
Cc1cc(-c2sc(NC(=O)N3C[C@H]4CC[C@@H](C3)N(C)C4)nc2-c2cccc(C#N)c2)cc(C)n1 [Example 6.5, (1S,5S)-N-[4-(3-Cyanophenyl)-5-(2,6-dimethyl-4-pyridyl)thiazol-2-yl]-6-methyl-3,6-diazabicyclo[3.2.2]nonane-3-carboxamide]	23.1	4.63	93	–	–	–
Cc1cc(-c2sc(NC(=O)N3CCC4(CCN4C)C3)nc2-c2cccc(C#N)c2)cc(C)n1 (stereo not shown) [Example 4.36, N-[4-(3-Cyanophenyl)-5-(2,6-dimethyl-4-pyridyl)thiazol-2-yl]-1-methyl-1,7-diazaspiro[3.4]octane-7-carboxamide formate salt]	13.8	2.48	316	–	–	–
Cc1cc(-c2sc(NC(=O)N3CCNC(C)(C)C3)nc2-c2cccc(C#N)c2)cc(C)n1 [Example 14.6, N-[4-(3-Cyanophenyl)-5-(2,6-dimethyl-4-pyridyl)thiazol-2-yl]-3,3-dimethyl-piperazine-1-carboxamide]	33	15.6	185	–	–	–
Cc1cc(-c2sc(NC(=O)N3C[C@@H](C)N[C@@H](C)C3)nc2-c2cccc(C#N)c2)cc(C)n1 [Example 13, (3S,5R)—N-[4-(3-Cyanophenyl)-5-(2,6-dimethyl-4-pyridyl)thiazol-2-yl]-3,5-dimethyl-piperazine-1-carboxamide]	196	24.3	373	–	–	–
Cc1cc(-c2sc(NC(=O)N3CC(N(C)C)C3)nc2-c2cccc(C#N)c2)cc(C)n1 [Example 6.115, N-[4-(3-Cyanophenyl)-5-(2,6-dimethyl-4-pyridyl)thiazol-2-yl]-3-(dimethylamino)azetidine-1-carboxamide]	29	8	177	–	–	–
Cc1cc(-c2sc(NC(=O)N3C[C@H](C)N[C@@H](C)C3)nc2-c2cccc(C#N)c2)cc(C)n1 [Example 13.3, (3S,5S)-N-[4-(3-Cyanophenyl)-5-(2,6-dimethyl-4-pyridyl)thiazol-2-yl]-3,5-dimethyl-piperazine-1-carboxamide]	77	11.4	322	–	–	–
Cc1cc(-c2sc(NC(=O)N3CC(N4CCOCC4)C3)nc2-c2cccc(C#N)c2)cc(C)n1 [Example 6.112, N-[4-(3-Cyanophenyl)-5-(2,6-dimethyl-4-pyridyl)thiazol-2-yl]-3-morpholino-azetidine-1-carboxamide]	23.6	4.3	339	–	–	–
Cc1cc(-c2sc(NC(=O)N3CC4CN(C)CC43)nc2-c2cccc(C#N)c2)cc(C)n1 (stereo not shown) [Example 6.120, N-[4-(3-Cyanophenyl)-5-(2,6-dimethyl-4-pyridyl)thiazol-2-yl]-3-methyl-3,6-diazabicyclo[3.2.0]heptane-6-carboxamide]	63.9	11.1	123	–	–	–
Cc1cc(-c2sc(NC(=O)N3C[C@@H]4NCCO[C@H]4C3)nc2-c2cccc(C#N)c2)cc(C)n1 (racemic) [Example 14.3, rac-(4aS,7aS)—N-[4-(3-Cyanophenyl)-5-(2,6-dimethyl-4-pyridyl)thiazol-2-yl]-3,4,4a,5,7,7a-hexahydro-2H-pyrrolo[3,4-b][1,4]oxazine-6-carboxamide 2,2,2-trifluoroacetic acid salt]	–	3.49	–	7.6	–	–
Cc1cc(-c2sc(NC(=O)N3CCNC4(CC4)C3)nc2-c2cccc(C#N)c2)cc(C)n1 [Example 13.2, N-[4-(3-Cyanophenyl)-5-(2,6-dimethyl-4-pyridyl)thiazol-2-yl]-4,7-diazaspiro[2.5]octane-7-carboxamide]	4.4	1.9	27	–	–	–
Cc1cc(-c2sc(NC(=O)N3C[C@@H](C)NC[C@@H]3C)nc2-c2cccc(C#N)c2)cc(C)n1 (relative stereo) [Example 7.11, trans-N-[4-(3-Cyanophenyl)-5-(2,6-dimethyl-4-pyridyl)thiazol-2-yl]-2,5-dimethyl-piperazine-1-carboxamide]	78.7	12.8	110	–	–	–
Cc1cc(-c2sc(NC(=O)N3[C@H](C)CNC[C@H]3C)nc2-c2cccc(C#N)c2)cc(C)n1 [Example 7.8, (2R,6R)—N-[4-(3-Cyanophenyl)-5-(2,6-dimethyl-4-pyridyl)thiazol-2-yl]-2,6-dimethyl-piperazine-1-carboxamide]	60.2	6.73	194	–	–	–
Cc1cc(-c2sc(NC(=O)N3CCN(C4CCOCC4)CC3)nc2-c2cccc(C#N)c2)cc(C)n1 [Example 6.113, N-[4-(3-Cyanophenyl)-5-(2,6-dimethyl-4-pyridyl)thiazol-2-yl]-4-tetrahydropyran-4-yl-piperazine-1-carboxamide diformate salt]	8.3	10.8	361	–	–	–
Cc1cc(-c2sc(NC(=O)N3CCNCC3C3CC3)nc2-c2cccc(C#N)c2)cc(C)n1 (stereo not shown) [Example 14.4, N-[4-(3-Cyanophenyl)-5-(2,6-dimethyl-4-pyridyl)thiazol-2-yl]-2-cyclopropyl-piperazine-1-carboxamide]	37.1	5.79	58	–	–	–
Cc1cc(-c2sc(NC(=O)N3CCN4CCC3C4)nc2-c2cccc(C#N)c2)cc(C)n1 (stereo not shown) [Example 6.121, N-[4-(3-Cyanophenyl)-5-(2,6-dimethyl-4-pyridyl)thiazol-2-yl]-1,4-diazabicyclo[3.2.1]octane-4-carboxamide]	6.8	1.94	123	–	–	–
Cc1cc(-c2sc(NC(=O)N3CCCC3CC(C)(C)O)nc2-c2cccc(C#N)c2)cc(Cl)n1 (stereo not shown) [Example 3.3]	3.9	2.15	136	–	–	–
Cc1cc(-c2sc(NC(=O)N3CCN[C@@H](C#N)C3)nc2-c2cccc(C#N)c2)cc(C)n1 [Example 13.15, (3R)-3-Cyano-N-[4-(3-cyanophenyl)-5-(2,6-dimethyl-4-pyridyl)thiazol-2-yl]piperazine-1-carboxamide]	5.1	0.33	41	–	–	–
Cc1cc(-c2sc(NC(=O)N3CCN4CCC[C@H]4C3)nc2-c2cccc(C#N)c2)cc(C)n1 [Example 4.38, (8aS)-N-[4-(3-Cyanophenyl)-5-(2,6-dimethyl-4-pyridyl)thiazol-2-yl]-3,4,6,7,8,8a-hexahydro-1H-pyrrolo[1,2-a]pyrazine-2-carboxamide formate salt]	–	–	–	–	8.1 nM and 3.5 nM	180 nM and 75 nM
